Consider 25 compounds from patent US20150218172A1, “Pyrrolo[2,3-D]Pyrimidine Tropomyosin-Related Kinase Inhibitors” (PFIZER LIMITED, priority 2012, published 2015).

A word on the IC50: it is the concentration that gives 50% inhibition.

The experiment concerns the target T1, TrkA (Homo sapiens, UniProt P04629).
T1 construct: aa 441-796; His; purchased Invitrogen PV3144
As to the kind of experiment: Isolated TRK enzyme assay (HTRF KinEASE-TK kit), PV3144 TrkA enzyme assay. In kind it is biochemical. As to conditions: PV3144 TrkA enzyme assay, recombinant His-tagged cytoplasmic domain aa 441-796, 4 nM enzyme, 40 uM ATP; arithmetic mean where more than one reading; read-out: Trka enzyme (IC50). The protocol:
Isolated TRK Enzyme assays use the HTRF KinEASE-TK kit (Cisbio Cat#62TK0PEJ) with recombinant His-tagged cytoplasmic domains of each TRK receptor sourced from Invitrogen (see table below). This activity-assay measures the phosphorylation of tyrosine residues within a substrate from the HTRF kit which has been validated by Cisbio for a variety of tyrosine kinases including the TRK receptors.
0.5 mM stock solutions of test compounds are prepared and serially diluted in 100% DMSO. A standard curve using the compound of Example 135 disclosed in WO2005/116035 of 150 uM is also prepared on each test plate. High percentage effect (HPE) is defined by 150 uM (using the compound of Example 135 as disclosed in WO2005/116035) and 0% effect (ZPE) is defined by 100% DMSO. Greiner low volume black plates containing 0.2 ul of serially diluted compound, standard and HPE/ZPE are created using the Bravo nanolitre dispenser.
1X enzyme buffer is prepared from 5X Enzymatic Buffer from the Cisbio KinEASE TK kit using MilliQ water. The buffer is then supplemented with 10 mM MgCl and 2 mM DTT (both from Sigma). In the case of TRKB, the buffer is also supplemented with 125 nM Supplement Enzymatic Buffer (SEB) from the Cisbio kit.
2X FAC of enzyme and 2X FAC ATP diluted in 1X complete enzyme buffer is incubated at room temperature for 20 minutes to preactivate the enzyme. Following this preactivation step, 5 ul/well of enzyme+ATP mix is added using a Multidrop Micro to the assay plate, spotted with 0.2 ul 100% DMSO compound. This is left for 20 mins at room temperature before adding 5 ul of 2 uM TK-substrate-Biotin (from the Cisbio kit) diluted in 1X enzyme buffer (1 uM FAC) using the Multidrop Micro. The reaction is incubated at room temperature for the optimized assay reaction time (see table). The reaction is stopped by adding 10 ul/well HTRF Detection Buffer containing 0.25 uM Streptavidin-XL665 (0.125 uM FAC) and 1:200 TK Antibody-Cryptate using a Multidrop.
After the Detection Reagent addition, plates are covered and incubated at room temperature for 60 minutes. HTRF signal is read using an Envision reader, measured as a ratio of emissions at two different wavelengths, 620 nm and 665 nm. […] Test compound data are expressed as percentage inhibition defined by HPE and ZPE values for each plate. Percentage inhibition in the presence of test compound is plotted against compound concentration on a log scale to determine an IC50 from the resultant sigmoid curve.
Below are TrkA IC50 data generated using the PV3144 TrkA enzyme assay. Where more than one reading was taken, the arithmetic mean is presented.
On the technique in general: In TR-FRET formats the signal depends on donor and acceptor labels being close together.

T1 sequence (P04629 441-796): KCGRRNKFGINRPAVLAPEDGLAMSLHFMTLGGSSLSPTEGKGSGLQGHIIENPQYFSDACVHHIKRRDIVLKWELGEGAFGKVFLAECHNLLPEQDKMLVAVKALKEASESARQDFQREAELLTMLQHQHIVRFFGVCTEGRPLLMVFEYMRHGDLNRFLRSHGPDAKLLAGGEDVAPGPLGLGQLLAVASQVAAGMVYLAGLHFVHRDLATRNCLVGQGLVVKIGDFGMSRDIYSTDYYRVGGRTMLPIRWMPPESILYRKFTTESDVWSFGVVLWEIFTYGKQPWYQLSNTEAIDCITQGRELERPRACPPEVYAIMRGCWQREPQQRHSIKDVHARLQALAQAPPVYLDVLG

For the compound `CC(C)n1cc(C(=O)c2cc(NC(=O)Cn3cc(C(F)(F)F)nn3)ccn2)c2cnc(N)nc21` [Example 90, N-(2-{[2-amino-7-(propan-2-yl)-7H-pyrrolo[2,3-d]pyrimidin-5-yl]carbonyl}pyridin-4-yl)-2-[4-(trifluoromethyl)-1H-1,2,3-triazol-1-yl]acetamide], the IC50 amounted to 18.5 nM.
For the compound `C[C@@H](CO)n1cc(C(=O)c2cc(NC(=O)Cn3cc(C(F)(F)F)nn3)ccn2)c2cncnc21` [Example 31, N-[2-({7-[(2S)-1-hydroxypropan-2-yl]-7H-pyrrolo[2,3-d]pyrimidin-5-yl}carbonyl)pyridin-4-yl]-2-[4-(trifluoromethyl)-1H-1,2,3-triazol-1-yl]acetamide], the IC50 was determined as 78.1 nM.
For `CC(CO)(CO)n1cc(C(=O)c2cc(NC(=O)Cc3ccc(C(F)(F)F)cc3)ccn2)c2cncnc21` [Example 103, N-(2-{[7-(1,3-dihydroxy-2-methylpropan-2-yl)-7H-pyrrolo[2,3-d]pyrimidin-5-yl]carbonyl}pyridin-4-yl)-2-[4-(trifluoromethyl)phenyl]acetamide] the value was 13.6 nM; for `CC(C)n1cc(C(=O)c2ccnc(NC(=O)Cc3ccc(Cl)cc3)c2)c2cnc(N)nc21` [Example 44, N-[4-(2-Amino-7-isopropyl-7H-pyrrolo[2,3-d]pyrimidine-5-carbonyl)-pyridin-2-yl]-2-(4-chloro-phenyl)-acetamide], 10.2 nM.
The value for `CC(C)(CO)n1cc(C(=O)c2ccnc(NC(=O)Cc3ccc(C#N)cc3)c2)c2cncnc21` [Example 111, 2-(4-cyanophenyl)-N-(4-{[7-(1-hydroxy-2-methylpropan-2-yl)-7H-pyrrolo[2,3-d]pyrimidin-5-yl]carbonyl}pyridin-2-yl)acetamide] was 31.8 nM; that for `CC(C)(CO)n1cc(C(=O)c2cc(NC(=O)Cc3ccc(Cl)cn3)ccn2)c2cncnc21` [Example 58, 2-(5-chloropyridin-2-yl)-N-(2-{[7-(1-hydroxy-2-methylpropan-2-yl)-7H-pyrrolo[2,3-d]pyrimidin-5-yl]carbonyl}pyridin-4-yl)acetamide] was 11.6 nM.
As to `CC(C)(CO)n1cc(C(=O)c2cc(NC(=O)Cn3ccc(C(F)(F)F)n3)ccn2)c2cncnc21` [Example 59, N-(2-{[7-(1-hydroxy-2-methylpropan-2-yl)-7H-pyrrolo[2,3-d]pyrimidin-5-yl]carbonyl}pyridin-4-yl)-2-[3-(trifluoromethyl)-1H-pyrazol-1-yl]acetamide], the IC50 amounted to 12.3 nM.
Consider `CC1(n2cc(C(=O)c3cc(NC(=O)Cc4ccc(C(F)(F)F)c(F)c4)ccn3)c3cncnc32)COC1` [Example 170, 2-[3-fluoro-4-(trifluoromethyl)phenyl]-N-(2-{[7-(3-methyloxetan-3-yl)-7H-pyrrolo[2,3-d]pyrimidin-5-yl]carbonyl}pyridin-4-yl)acetamide], for which the IC50 amounted to 99.8 nM.
As for `CS(=O)(=O)c1cccc(CC(=O)Nc2cc(C(=O)c3cn(CCO)c4ncncc34)ccn2)c1` [Example 131, N-(4-{[7-(2-hydroxyethyl)-7H-pyrrolo[2,3-d]pyrimidin-5-yl]carbonyl}pyridin-2-yl)-2-[3-(methylsulfonyl)phenyl]acetamide], the IC50 came to 1110 nM.
The value for `O=C(Cc1cccc(C(F)(F)F)c1)Nc1ccnc(C(=O)c2cn(C(CO)CO)c3ncncc23)c1` [Example 96, N-(2-{[7-(1,3-dihydroxypropan-2-yl)-7H-pyrrolo[2,3-d]pyrimidin-5-yl]carbonyl}pyridin-4-yl)-2-[3-(trifluoromethyl)phenyl]acetamide] was 139 nM.
The value for `N#Cc1ccc(CC(=O)Nc2cc(C(=O)c3cn(C(CO)CO)c4ncncc34)ccn2)cc1` [Example 114, 2-(4-cyanophenyl)-N-(4-{[7-(1,3-dihydroxypropan-2-yl)-7H-pyrrolo[2,3-d]pyrimidin-5-yl]carbonyl}pyridin-2-yl)acetamide] was 536 nM; that for `CC(C)(C)n1cc(C(=O)c2ccnc(NC(=O)Cc3ccc(C#N)cc3)c2)c2cncnc21` [Example 173, N-{4-[(7-tert-butyl-7H-pyrrolo[2,3-d]pyrimidin-5-yl)carbonyl}pyridin-2-yl]-2-(4-cyanophenyl)acetamide] was 25.4 nM; that for `O=C(Cc1ccc(OC(F)(F)F)cc1)Nc1ccnc(C(=O)c2cn(C(CO)CO)c3ncncc23)c1` [Example 98, N-(2-{[7-(1,3-dihydroxypropan-2-yl)-7H-pyrrolo[2,3-d]pyrimidin-5-yl]carbonyl}pyridin-4-yl)-2-[4-(trifluoromethoxy)phenyl]acetamide] was 1500 nM.
For `Cc1ccnn1CC(=O)Nc1cc(C(=O)c2cn(C(C)C)c3ncncc23)ccn1` [Example 160, 2-(5-methyl-1H-pyrazol-1-yl)-N-(4-{[7-(propan-2-yl)-7H-pyrrolo[2,3-d]pyrimidin-5-yl]carbonyl}pyridin-2-yl)acetamide], the IC50 stood at 86.3 nM.
In the case of `CC(C)n1cc(C(=O)c2ccnc(NC(=O)Cc3ccc(Cl)cn3)c2)c2cncnc21` [Example 74, 2-(5-chloropyridin-2-yl)-N-(4-{[7-(propan-2-yl)-7H-pyrrolo[2,3-d]pyrimidin-5-yl]carbonyl}pyridin-2-yl)acetamide], the IC50 stood at 20.9 nM.
With `CC(C)n1cc(C(=O)c2ccnc(NC(=O)Cc3ccc(F)cc3)c2)c2cncnc21` [Example 153, 2-(4-fluorophenyl)-N-(4-{[7-(propan-2-yl)-7H-pyrrolo[2,3-d]pyrimidin-5-yl]carbonyl}pyridin-2-yl)acetamide], the IC50 is 42 nM.
For `Cc1cc(C(F)(F)F)nn1CC(=O)Nc1cc(C(=O)c2cn(C(C)(C)CO)c3nc(N)ncc23)ccc1C#N` [Example 10, N-(5-{[2-amino-7-(1-hydroxy-2-methylpropan-2-yl)-7H-pyrrolo[2,3-d]pyrimidin-5-yl]carbonyl}-2-cyanophenyl)-2-[5-methyl-3-(trifluoromethyl)-1H-pyrazol-1-yl]acetamide] the value was 13.2 nM; for `CC(C)n1cc(C(=O)c2ccnc(NC(=O)Cc3ccc(C(F)(F)F)cc3)c2)c2cncnc21` [Example 122, N-(4-{[7-(propan-2-yl)-7H-pyrrolo[2,3-d]pyrimidin-5-yl]carbonyl}pyridin-2-yl)-2-[4-(trifluoromethyl)phenyl]acetamide], 4.24 nM.
For `CC(C)(CO)n1cc(C(=O)c2cc(NC(=O)Cn3cc(C(F)(F)F)nn3)ccn2)c2cncnc21` [Example 54, N-(2-{[7-(1-hydroxy-2-methylpropan-2-yl)-7H-pyrrolo[2,3-d]pyrimidin-5-yl]carbonyl}pyridin-4-yl)-2-[4-(trifluoromethyl)-1H-1,2,3-triazol-1-yl]acetamide], the concentration for half-maximal inhibition (IC50) worked out at 46.2 nM.
For the compound `CC(C)n1cc(C(=O)c2ccnc(NC(=O)Cn3ccnc3)c2)c2cncnc21` [Example 156, 2-(1H-imidazol-1-yl)-N-(4-{[7-(propan-2-yl)-7H-pyrrolo[2,3-d]pyrimidin-5-yl]carbonyl}pyridin-2-yl)acetamide], the 50% inhibitory concentration (IC50) is 1060 nM.
For `CC(C)n1cc(C(=O)c2ccnc(NC(=O)Cc3ccccc3Cl)c2)c2cncnc21` [Example 159, 2-(2-chlorophenyl)-N-(4-{[7-(propan-2-yl)-7H-pyrrolo[2,3-d]pyrimidin-5-yl]carbonyl}pyridin-2-yl)acetamide] the value was 53.6 nM; for `CC(C)(C)n1cc(C(=O)c2cc(NC(=O)Cc3ccc(F)cc3)ccn2)c2cncnc21` [Example 43, N-{2-[(7-tert-butyl-7H-pyrrolo[2,3-d]pyrimidin-5-yl)carbonyl]pyridin-4-yl}-2-(4-fluorophenyl)acetamide], 15.7 nM; for `O=C(Cc1ccc(Cl)c(Cl)c1)Nc1cc(C(=O)c2cn(CCO)c3ncncc23)ccn1` [Example 138, 2-(3,4-dichlorophenyl)-N-(4-{[7-(2-hydroxyethyl)-7H-pyrrolo[2,3-d]pyrimidin-5-yl]carbonyl}pyridin-2-yl)acetamide], 31.1 nM.
For the compound `Cc1cn(CC(=O)Nc2cc(C(=O)c3cn(CCO)c4ncncc34)ccn2)nn1` [Example 133, N-(4-{[7-(2-hydroxyethyl)-7H-pyrrolo[2,3-d]pyrimidin-5-yl]carbonyl}pyridin-2-yl)-2-(4-methyl-1H-1,2,3-triazol-1-yl)acetamide], the IC50 was 9380 nM.
`C[C@H](CO)n1cc(C(=O)c2cc(NC(=O)Cc3ccc(F)cn3)ccn2)c2cncnc21` [Example 27, 2-(5-fluoropyridin-2-yl)-N-[2-({7-[(2R)-1-hydroxypropan-2-yl]-7H-pyrrolo[2,3-d]pyrimidin-5-yl}carbonyl)pyridin-4-yl]acetamide]: the IC50 worked out at 139 nM.
